Assay results as given in publication PMC9632963, “Preclinical characterization and phase I clinical trial of CT053PTSA targets MET, AXL, and VEGFR2 in patients with advanced solid tumors” (Frontiers in Immunology, 2022).

System: patients with advanced solid tumors
Assay: Phase I trial: safety, tolerability, DLT, MTD (CTCAE v4.0)
Type: in vivo
Text: Eligible patients had at least one measurable lesion per RECIST v 1.1, Eastern Cooperative Oncology Group (ECOG) performance status of 0 or 1, and adequate hematological, renal, cardiac and hepatic functions. The primary objectives were to assess safety and tolerability as well as to determine the MTD, DLT, and dose recommended for further study. The secondary objectives were to assess the PK and preliminary efficacy of CT053PTSA.
An initial accelerated titration design was used in the 15 and 30 mg QD cohorts, and the “3+3” schema was used starting in the 60 mg QD cohort. […] The study protocol was approved by an institutional review board at Sun Yat-sen University Cancer Center. Written informed consent was obtained from all the patients before enrollment.
Descriptive statistics of safety are presented per CTCAE v4.0. Subjects who received at least one dose of CT053PTSA were considered eligible to be evaluated and included in safety analyses. […] According to the RECIST 1.1 criteria, imaging examinations were performed at each specified time point in the protocol. The antitumor activity was measured by RECIST1.1.

Compound: Cc1c(C(=O)Nc2ccc(Oc3ccnc4cc(OCC(C)(C)O)ccc34)c(F)c2)c(=O)n(-c2ccccc2)n1C [CT053PTSA]
- Blood sodium decreased, ≥ G3 (100mg (n = 7)): 0 n (%)
- Blood uric acid increased, All (100mg (n = 7)): 0 n (%)
- Blood uric acid increased, ≥ G3 (100mg (n = 7)): 0 n (%)
- Decreased appetite, All (100mg (n = 7)): 2 (28.6) n (%)
- Decreased appetite, ≥ G3 (100mg (n = 7)): 0 n (%)
- Diarrhea, All (100mg (n = 7)): 1 (14.3) n (%)
- Diarrhea, ≥ G3 (100mg (n = 7)): 0 n (%)
- Dizziness, All (100mg (n = 7)): 1 (14.3) n (%)
- Dizziness, ≥ G3 (100mg (n = 7)): 0 n (%)
- Dry mouth, All (100mg (n = 7)): 1 (14.3) n (%)
- Dry mouth, ≥ G3 (100mg (n = 7)): 0 n (%)
- Electrocardiogram QT prolonged, All (100mg (n = 7)): 1 (14.3) n (%)
- Electrocardiogram QT prolonged, ≥ G3 (100mg (n = 7)): 0 n (%)
- Electrolyte imbalance, All (100mg (n = 7)): 0 n (%)
- Electrolyte imbalance, ≥ G3 (100mg (n = 7)): 0 n (%)
- Hemoglobin decreased, All (100mg (n = 7)): 0 n (%)
- Hemoglobin decreased, ≥ G3 (100mg (n = 7)): 0 n (%)
- Hypertension, All (100mg (n = 7)): 2 (28.6) n (%)
- Hypertension, ≥ G3 (100mg (n = 7)): 0 n (%)
- Hyponatremia, All (100mg (n = 7)): 1 (14.3) n (%)
- Hyponatremia, ≥ G3 (100mg (n = 7)): 0 n (%)
- Hypoparathyroidism, All (100mg (n = 7)): 0 n (%)
- Hypoparathyroidism, ≥ G3 (100mg (n = 7)): 0 n (%)
- Mouth ulceration, All (100mg (n = 7)): 0 n (%)
- Mouth ulceration, ≥ G3 (100mg (n = 7)): 0 n (%)
- Nausea, All (100mg (n = 7)): 1 (14.3) n (%)
- Nausea, ≥ G3 (100mg (n = 7)): 0 n (%)
- Oropharyngeal pain, All (100mg (n = 7)): 1 (14.3) n (%)
- Oropharyngeal pain, ≥ G3 (100mg (n = 7)): 0 n (%)
- Pain, All (100mg (n = 7)): 1 (14.3) n (%)
- Pain, ≥ G3 (100mg (n = 7)): 0 n (%)
- Palmar-plantar erythrodysaesthesia syndrome, All (100mg (n = 7)): 1 (14.3) n (%)
- Palmar-plantar erythrodysaesthesia syndrome, ≥ G3 (100mg (n = 7)): 0 n (%)
- Platelet count decreased, All (100mg (n = 7)): 4 (57.1) n (%)
- Platelet count decreased, ≥ G3 (100mg (n = 7)): 1 (14.3) n (%)
- Proteinuria, All (100mg (n = 7)): 1 (14.3) n (%)
- Proteinuria, ≥ G3 (100mg (n = 7)): 0 n (%)
- Pyrexia, All (100mg (n = 7)): 0 n (%)
- Pyrexia, ≥ G3 (100mg (n = 7)): 0 n (%)
- Sinus bradycardia, All (100mg (n = 7)): 0 n (%)
- Sinus bradycardia, ≥ G3 (100mg (n = 7)): 0 n (%)
- Stomatitis, All (100mg (n = 7)): 1 (14.3) n (%)
- Stomatitis, ≥ G3 (100mg (n = 7)): 0 n (%)
- Vomiting, All (100mg (n = 7)): 0 n (%)
- Vomiting, ≥ G3 (100mg (n = 7)): 0 n (%)
- leukopenia, All (100mg (n = 7)): 4 (57.1) n (%)
- leukopenia, ≥ G3 (100mg (n = 7)): 0 n (%)
- neutropenia, All (100mg (n = 7)): 4 (57.1) n (%)
- neutropenia, ≥ G3 (100mg (n = 7)): 0 n (%)
- transaminase elevation, All (100mg (n = 7)): 6 (85.7) n (%)
- transaminase elevation, ≥ G3 (100mg (n = 7)): 1 (14.3) n (%)
- patients with DLT / patients eligible for DLT assessment (100 mg QD): 1/6 and one out of six
- Anaemia, All (150mg (n = 5)): 0 n (%)
- Anaemia, ≥ G3 (150mg (n = 5)): 0 n (%)
- Blood chloride decreased, All (150mg (n = 5)): 0 n (%)
- Blood chloride decreased, ≥ G3 (150mg (n = 5)): 0 n (%)
- Blood creatinine increased, All (150mg (n = 5)): 1 (20) n (%)
- Blood creatinine increased, ≥ G3 (150mg (n = 5)): 0 n (%)
- Blood potassium decreased, All (150mg (n = 5)): 1 (20) n (%)
- Blood potassium decreased, ≥ G3 (150mg (n = 5)): 0 n (%)
- Blood sodium decreased, All (150mg (n = 5)): 1 (20) n (%)
- Blood sodium decreased, ≥ G3 (150mg (n = 5)): 1 (20) n (%)
- Blood uric acid increased, All (150mg (n = 5)): 1 (20) n (%)
- Blood uric acid increased, ≥ G3 (150mg (n = 5)): 0 n (%)
- Decreased appetite, All (150mg (n = 5)): 3 (60) n (%)
- Decreased appetite, ≥ G3 (150mg (n = 5)): 1 (20) n (%)
- Diarrhea, All (150mg (n = 5)): 1 (20) n (%)
- Diarrhea, ≥ G3 (150mg (n = 5)): 0 n (%)
- Dizziness, All (150mg (n = 5)): 0 n (%)
- Dizziness, ≥ G3 (150mg (n = 5)): 0 n (%)
- Dry mouth, All (150mg (n = 5)): 0 n (%)
- Dry mouth, ≥ G3 (150mg (n = 5)): 0 n (%)
- Electrocardiogram QT prolonged, All (150mg (n = 5)): 1 (20) n (%)
- Electrocardiogram QT prolonged, ≥ G3 (150mg (n = 5)): 0 n (%)
- Electrolyte imbalance, All (150mg (n = 5)): 1 (20) n (%)
- Electrolyte imbalance, ≥ G3 (150mg (n = 5)): 0 n (%)
- Hemoglobin decreased, All (150mg (n = 5)): 1 (20) n (%)
- Hemoglobin decreased, ≥ G3 (150mg (n = 5)): 0 n (%)
- Hypertension, All (150mg (n = 5)): 2 (40) n (%)
- Hypertension, ≥ G3 (150mg (n = 5)): 1 (20) n (%)
- Hyponatremia, All (150mg (n = 5)): 0 n (%)
- Hyponatremia, ≥ G3 (150mg (n = 5)): 0 n (%)
- Hypoparathyroidism, All (150mg (n = 5)): 1 (20) n (%)
- Hypoparathyroidism, ≥ G3 (150mg (n = 5)): 0 n (%)
- Mouth ulceration, All (150mg (n = 5)): 1 (20) n (%)
- Mouth ulceration, ≥ G3 (150mg (n = 5)): 0 n (%)
- Nausea, All (150mg (n = 5)): 1 (20) n (%)
- Nausea, ≥ G3 (150mg (n = 5)): 0 n (%)
- Oropharyngeal pain, All (150mg (n = 5)): 0 n (%)
- Oropharyngeal pain, ≥ G3 (150mg (n = 5)): 0 n (%)
- Pain, All (150mg (n = 5)): 0 n (%)
- Pain, ≥ G3 (150mg (n = 5)): 0 n (%)
- Palmar-plantar erythrodysaesthesia syndrome, All (150mg (n = 5)): 0 n (%)
- Palmar-plantar erythrodysaesthesia syndrome, ≥ G3 (150mg (n = 5)): 0 n (%)
- Platelet count decreased, All (150mg (n = 5)): 1 (20) n (%)
